According to ChEMBL document CHEMBL4196010, “New hydrazides derivatives of isoniazid against Mycobacterium tuberculosis: Higher potency and lower hepatocytotoxicity” (Eur J Med Chem, 2018):
Converted amounts (≈) assume the structure as drawn.

Legend:
[1] = test system: Mycobacterium tuberculosis; assay: Antitubercular activity against Mycobacterium tuberculosis H37Rv ATCC 27294 after 5 days by microplate alamar blue assay; type: functional; conditions: H37Rv ATCC 27294, 120 h
J774.A1 [2] = assay: Cytotoxicity against mouse J774A.1 cells assessed as decrease in cell viability at 100 nM after 20 hrs by resazurin dye-based fluorimetric method; conditions: j774.a1, 20 h, 0.1 µM
J774.A1 [3] = assay: Cytotoxicity against mouse J774A.1 cells assessed as decrease in cell viability at 10 nM after 20 hrs by resazurin dye-based fluorimetric method; conditions: j774.a1, 20 h, 0.01 µM
J774.A1 [4] = assay: Cytotoxicity against mouse J774A.1 cells assessed as decrease in cell viability at 10 uM after 20 hrs by resazurin dye-based fluorimetric method; conditions: j774.a1, 20 h
J774.A1 [5] = assay: Cytotoxicity against mouse J774A.1 cells assessed as decrease in cell viability at 1 uM after 20 hrs by resazurin dye-based fluorimetric method; conditions: j774.a1, 20 h
[6] = Cytotoxicity against human HepG2 cells after 24 hrs by WST-1 assay; type: cell-based; conditions: read-out: LC50
[7] = Selectivity index, ratio of LC50 for human HepG2 cells to MIC for Mycobacterium tuberculosis H37Rv ATCC 27294; type: toxicity; conditions: read-out: Selectivity Index
[8] = Cytotoxicity against human HepG2 cells after 3 hrs by WST-1 assay; type: cell-based; conditions: read-out: LC50
J774.A1 [9] = assay: Cytotoxicity against mouse J774A.1 cells assessed as decrease in cell viability at 100 uM after 20 hrs by resazurin dye-based fluorimetric method; conditions: j774.a1, 20 h
J774.A1 [10] = assay: Cytotoxicity against mouse J774A.1 cells assessed as decrease in cell viability at 1 nM after 20 hrs by resazurin dye-based fluorimetric method; conditions: j774.a1, 20 h, 0.001 µM
[11] = test system: Mycobacterium tuberculosis; assay: Potency index, ratio of ethambutol MIC to compound MIC for antitubercular activity against Mycobacterium tuberculosis H37Rv ATCC 27294; type: functional
[12] = test system: Mycobacterium tuberculosis; assay: Potency index, ratio of pyrazinamide MIC to compound MIC for antitubercular activity against Mycobacterium tuberculosis H37Rv ATCC 27294; type: functional
Salmonella typhimurium [13] = assay: Genotoxicity in Salmonella typhimurium TA100 assessed as increase in revertant colonies at 50 uM preincubated for 20 mins followed by addition of top agar and minimal agar and measured after 72 hrs in absence of S9 metabolic activation system by Ames test relative to control; type: toxicity, organism-based; conditions: salmonella enterica subsp. enterica serovar typhimurium
Salmonella typhimurium [14] = assay: Genotoxicity in Salmonella typhimurium TA98 assessed as increase in revertant colonies at 5 uM preincubated for 20 mins followed by addition of top agar and minimal agar and measured after 72 hrs in absence of S9 metabolic activation system by Ames test relative to control; type: toxicity, organism-based; conditions: salmonella enterica subsp. enterica serovar typhimurium
Salmonella typhimurium [15] = assay: Genotoxicity in Salmonella typhimurium TA100 assessed as increase in revertant colonies at 50 uM preincubated for 20 mins followed by addition of top agar and minimal agar and measured after 72 hrs in presence of S9 metabolic activation system by Ames test relative to control; type: toxicity, organism-based; conditions: salmonella enterica subsp. enterica serovar typhimurium
Salmonella typhimurium [16] = assay: Genotoxicity in Salmonella typhimurium TA98 assessed as increase in revertant colonies at 0.5 uM preincubated for 20 mins followed by addition of top agar and minimal agar and measured after 72 hrs in absence of S9 metabolic activation system by Ames test relative to control; type: toxicity, organism-based; conditions: salmonella enterica subsp. enterica serovar typhimurium
Salmonella typhimurium [17] = assay: Genotoxicity in Salmonella typhimurium TA100 assessed as increase in revertant colonies at 5 uM preincubated for 20 mins followed by addition of top agar and minimal agar and measured after 72 hrs in absence of S9 metabolic activation system by Ames test relative to control; type: toxicity, organism-based; conditions: salmonella enterica subsp. enterica serovar typhimurium
Salmonella typhimurium [18] = assay: Genotoxicity in Salmonella typhimurium TA100 assessed as increase in revertant colonies at 500 uM preincubated for 20 mins followed by addition of top agar and minimal agar and measured after 72 hrs in absence of S9 metabolic activation system by Ames test relative to control; type: toxicity, organism-based; conditions: salmonella enterica subsp. enterica serovar typhimurium
Salmonella typhimurium [19] = assay: Genotoxicity in Salmonella typhimurium TA100 assessed as increase in revertant colonies at 5 uM preincubated for 20 mins followed by addition of top agar and minimal agar and measured after 72 hrs in presence of S9 metabolic activation system by Ames test relative to control; type: toxicity, organism-based; conditions: salmonella enterica subsp. enterica serovar typhimurium
Salmonella typhimurium [20] = assay: Genotoxicity in Salmonella typhimurium TA100 assessed as increase in revertant colonies at 5000 uM preincubated for 20 mins followed by addition of top agar and minimal agar and measured after 72 hrs in absence of S9 metabolic activation system by Ames test relative to control; type: toxicity, organism-based; conditions: salmonella enterica subsp. enterica serovar typhimurium
Salmonella typhimurium [21] = assay: Genotoxicity in Salmonella typhimurium TA98 assessed as increase in revertant colonies at 5000 uM preincubated for 20 mins followed by addition of top agar and minimal agar and measured after 72 hrs in absence of S9 metabolic activation system by Ames test relative to control; type: toxicity, organism-based; conditions: salmonella enterica subsp. enterica serovar typhimurium
Salmonella typhimurium [22] = assay: Genotoxicity in Salmonella typhimurium TA98 assessed as increase in revertant colonies at 500 uM preincubated for 20 mins followed by addition of top agar and minimal agar and measured after 72 hrs in absence of S9 metabolic activation system by Ames test relative to control; type: toxicity, organism-based; conditions: salmonella enterica subsp. enterica serovar typhimurium
Salmonella typhimurium [23] = assay: Genotoxicity in Salmonella typhimurium TA98 assessed as increase in revertant colonies at 5000 uM preincubated for 20 mins followed by addition of top agar and minimal agar and measured after 72 hrs in presence of S9 metabolic activation system by Ames test relative to control; type: toxicity, organism-based; conditions: salmonella enterica subsp. enterica serovar typhimurium
Salmonella typhimurium [24] = assay: Genotoxicity in Salmonella typhimurium TA100 assessed as increase in revertant colonies at 0.5 uM preincubated for 20 mins followed by addition of top agar and minimal agar and measured after 72 hrs in presence of S9 metabolic activation system by Ames test relative to control; type: toxicity, organism-based; conditions: salmonella enterica subsp. enterica serovar typhimurium
Salmonella typhimurium [25] = assay: Genotoxicity in Salmonella typhimurium TA98 assessed as increase in revertant colonies at 0.5 uM preincubated for 20 mins followed by addition of top agar and minimal agar and measured after 72 hrs in presence of S9 metabolic activation system by Ames test relative to control; type: toxicity, organism-based; conditions: salmonella enterica subsp. enterica serovar typhimurium
Salmonella typhimurium [26] = assay: Genotoxicity in Salmonella typhimurium TA98 assessed as increase in revertant colonies at 50 uM preincubated for 20 mins followed by addition of top agar and minimal agar and measured after 72 hrs in absence of S9 metabolic activation system by Ames test relative to control; type: toxicity, organism-based; conditions: salmonella enterica subsp. enterica serovar typhimurium
Salmonella typhimurium [27] = assay: Genotoxicity in Salmonella typhimurium TA98 assessed as increase in revertant colonies at 50 uM preincubated for 20 mins followed by addition of top agar and minimal agar and measured after 72 hrs in presence of S9 metabolic activation system by Ames test relative to control; type: toxicity, organism-based; conditions: salmonella enterica subsp. enterica serovar typhimurium
Salmonella typhimurium [28] = assay: Genotoxicity in Salmonella typhimurium TA98 assessed as increase in revertant colonies at 5 uM preincubated for 20 mins followed by addition of top agar and minimal agar and measured after 72 hrs in presence of S9 metabolic activation system by Ames test relative to control; type: toxicity, organism-based; conditions: salmonella enterica subsp. enterica serovar typhimurium
Salmonella typhimurium [29] = assay: Genotoxicity in Salmonella typhimurium TA98 assessed as increase in revertant colonies at 500 uM preincubated for 20 mins followed by addition of top agar and minimal agar and measured after 72 hrs in presence of S9 metabolic activation system by Ames test relative to control; type: toxicity, organism-based; conditions: salmonella enterica subsp. enterica serovar typhimurium
Salmonella typhimurium [30] = assay: Genotoxicity in Salmonella typhimurium TA100 assessed as increase in revertant colonies at 0.5 uM preincubated for 20 mins followed by addition of top agar and minimal agar and measured after 72 hrs in absence of S9 metabolic activation system by Ames test relative to control; type: toxicity, organism-based; conditions: salmonella enterica subsp. enterica serovar typhimurium

## CC(=O)Nc1ccccc1C(F)(F)C(=O)NN=C1CCCCC1
[1]
  MIC: > 310 µM

## CO[C@H]1/C=C/O[C@@]2(C)Oc3c(C)c(O)c4c(O)c(c(/C=N/N5CCN(C)CC5)c(O)c4c3C2=O)NC(=O)/C(C)=C\C=C\[C@H](C)[C@H](O)[C@@H](C)[C@@H](O)[C@@H](C)[C@H](OC(C)=O)[C@@H]1C [RIFAMPIN]
[1]
  MIC: 1.22 µM (≈ 1 µg/mL)

## O=C(NNC(=O)c1ccncc1)C(=O)c1ccccc1NC(=O)c1ccccc1
J774.A1 [2]
  Activity: 99.8%
J774.A1 [3]
  Activity: 99.4%
J774.A1 [4]
  Activity: 98%
J774.A1 [5]
  Activity: 98.2%
[6]
  CC50 at 24 h: > 200 µM
[7]
  selectivity ratio: > 25
[1]
  MIC: 8.04 µM (≈ 3.12 µg/mL)
[8]
  CC50 at 3 h: > 200 µM
J774.A1 [9]
  Activity: 86.5%
J774.A1 [10]
  Activity: 100%

## CC(=O)Nc1ccc(C)cc1C(F)(F)C(=O)NNc1ccccn1
[1]
  MIC: > 299 µM

## CC(=O)NNC(=O)c1ccncc1
[1]
  MIC: > 559 µM

## CC[C@@H](CO)NCCN[C@@H](CC)CO [ETHAMBUTOL]
[1]
  MIC: 15.9 µM (≈ 3.25 µg/mL)

## CC(=O)Nc1ccc(F)cc1C(F)(F)C(=O)NNC(=O)c1ccncc1
[1]
  MIC: 17.1 µM (≈ 6.26 µg/mL)

## CC(=O)Nc1ccc(C)cc1C(F)(F)C(=O)NN
[1]
  MIC: > 412 µM

## CC(=O)Nc1ccccc1C(F)(F)C(=O)NNc1ccccn1
[1]
  MIC: > 312 µM

## CC(=O)Nc1ccccc1C(F)(F)C(=O)NNC(=O)c1ccncc1
[1]
  MIC: 3.59 µM (≈ 1.25 µg/mL)

## O=C(CCl)Nc1ccccc1C(=O)C(=O)NNC(=O)c1ccncc1
J774.A1 [2]
  Activity: 97.9%
J774.A1 [3]
  Activity: 98.5%
J774.A1 [4]
  Activity: 98.8%
[11]
  Ratio: 30
[12]
  Ratio: 1800
J774.A1 [5]
  Activity: 96.5%
[6]
  CC50 at 24 h: 110 µM
[7]
  selectivity ratio: 256
[1]
  MIC: 0.43 µM (≈ 0.155 µg/mL)
[8]
  CC50 at 3 h: > 200 µM
J774.A1 [9]
  Activity: 63.3%
J774.A1 [10]
  Activity: 99%

## NC(=O)c1cnccn1 [PYRAZINAMIDE]
[1]
  MIC: 813 µM (≈ 100 µg/mL)

## CC(=O)Nc1ccccc1C(F)(F)C(=O)NNC(=N)N
[1]
  MIC: > 351 µM

## CC(=O)Nc1ccc(C)cc1C(=O)C(=O)NNC(=O)c1ccncc1
J774.A1 [2]
  Activity: 99.5%
Salmonella typhimurium [13]
  fold change (FC): 1.4
Salmonella typhimurium [14]
  fold change (FC): 1.6
Salmonella typhimurium [15]
  Activity: Toxic
Salmonella typhimurium [16]
  fold change (FC): 1.2
J774.A1 [3]
  Activity: 100%
Salmonella typhimurium [17]
  fold change (FC): 1.2
Salmonella typhimurium [18]
  fold change (FC): 1.4
Salmonella typhimurium [19]
  fold change (FC): 1.5
J774.A1 [4]
  Activity: 98.2%
[11]
  Ratio: 30
[12]
  Ratio: 1800
Salmonella typhimurium [20]
  fold change (FC): 1.6
Salmonella typhimurium [21]
  fold change (FC): 3.4
Salmonella typhimurium [22]
  fold change (FC): 1.9
Salmonella typhimurium [23]
  fold change (FC): 4
Salmonella typhimurium [24]
  fold change (FC): 1.1
Salmonella typhimurium [25]
  fold change (FC): 1
J774.A1 [5]
  Activity: 99.2%
Salmonella typhimurium [26]
  fold change (FC): 1.8
Salmonella typhimurium [27]
  fold change (FC): 1.8
Salmonella typhimurium [28]
  fold change (FC): 1.7
[6]
  CC50 at 24 h: > 200 µM
Salmonella typhimurium [29]
  fold change (FC): 3.4
[7]
  selectivity ratio: > 444
Salmonella typhimurium [30]
  fold change (FC): 1.2
[1]
  MIC: 0.45 µM (≈ 0.153 µg/mL)
[8]
  CC50 at 3 h: > 200 µM
J774.A1 [9]
  Activity: 94%
J774.A1 [10]
  Activity: 100%

## CC(=O)Nc1ccccc1C(F)(F)C(=O)NNc1ccccc1
[1]
  MIC: > 313 µM

## CC(=O)Nc1ccc(Cl)cc1C(F)(F)C(=O)NNC(=O)c1ccncc1
[1]
  MIC: 16.4 µM (≈ 6.27 µg/mL)

## NNC(=O)c1ccncc1 [ISONIAZID]
J774.A1 [2]
  Activity: 97.3%
Salmonella typhimurium [13]
  fold change (FC): 1.3
Salmonella typhimurium [14]
  fold change (FC): 1.6
Salmonella typhimurium [15]
  Activity: Toxic
Salmonella typhimurium [16]
  fold change (FC): 1.5
J774.A1 [3]
  Activity: 98.2%
Salmonella typhimurium [17]
  fold change (FC): 1.2
Salmonella typhimurium [18]
  fold change (FC): 1.6
Salmonella typhimurium [19]
  fold change (FC): 1.4
J774.A1 [4]
  Activity: 98.5%
Salmonella typhimurium [20]
  fold change (FC): 1.9
Salmonella typhimurium [21]
  fold change (FC): 4
Salmonella typhimurium [22]
  fold change (FC): 3.7
Salmonella typhimurium [23]
  Activity: Toxic
Salmonella typhimurium [24]
  fold change (FC): 1.4
Salmonella typhimurium [25]
  fold change (FC): 1.3
J774.A1 [5]
  Activity: 98.7%
Salmonella typhimurium [26]
  fold change (FC): 2
Salmonella typhimurium [27]
  fold change (FC): 1.5
Salmonella typhimurium [28]
  fold change (FC): 1.3
[6]
  CC50 at 24 h: 105 µM
Salmonella typhimurium [29]
  fold change (FC): 1.6
[7]
  selectivity ratio: 119
Salmonella typhimurium [30]
  fold change (FC): 1.1
[1]
  MIC: 0.88 µM (≈ 0.121 µg/mL)
[8]
  CC50 at 3 h: > 200 µM
J774.A1 [9]
  Activity: 90.3%
J774.A1 [10]
  Activity: 99.5%

## CC(=O)Nc1ccc(C)cc1C(F)(F)C(=O)NNc1ccccc1
[1]
  MIC: > 300 µM

## COc1ccc(NC(C)=O)c(C(F)(F)C(=O)NNC(=O)c2ccncc2)c1
[1]
  MIC: 33.1 µM (≈ 12.5 µg/mL)

## CC(=O)Nc1ccc(C)cc1C(F)(F)C(=O)NNC(=O)c1ccncc1
[1]
  MIC: 6.91 µM (≈ 2.5 µg/mL)
